What was measured:
IKZF1 = IKZF1 (Homo sapiens (Human), UniProt Q13422+Q96SW2); test: In vitro IKZF1 HiBit Assay (HEK293T Flp-in-HiBiT-IKZF1 stable cell line); assay type: cell-based; details: HEK293T Flp-in-HiBiT-IKZF1 stable cell line, 6 hrs incubation; for DC50: read-out: IKZF1 HiBit DC50; for Dmax: HEK-293T, read-out: IKZF1 HiBit Dmax (%)
Procedure, shortened: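 Degradation was measured as loss of luminescence from the HiBiT-IKZF1 tag after 6 h compound treatment, with 0.1% final DMSO, in stable HEK293T Flp-in cells. Values were normalized to DMSO, giving the 50% degradation concentration and the maximal degradation range.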

CRBN/DDB1 = CRBN/DDB1 (Homo sapiens (Human), UniProt Q96SW2); test: IC50 measurements for binding to CRBN/DDB1 (HTRF); details: His tagged CRBN+DDB, Cy5-labeled Thalidomide probe, one hour
Procedure, shortened: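 Serially diluted compounds compete with a Cy5-labeled thalidomide tracer (60 nM) for His-tagged CRBN-DDB1 (2 nM), detected via anti-6His Tb cryptate (0.4 nM); buffer HEPES pH 7.5 with TCEP, Brij-35, NaCl, BSA. One-hour room-temperature incubation, HTRF signal read, IC50 by four-parameter curve.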

IKZF2 = IKZF2 (Homo sapiens (Human), UniProt Q96SW2+Q9UKS7); test: In vitro IKZF2 HiBit Assay (HEK293T Flp-in-HiBiT cells); assay type: cell-based; details: HEK293T Flp-in-HiBiT cells, 6 hrs incubation; for DC50: read-out: IKZF2 HiBit DC50; for Dmax: HEK-293T, read-out: IKZF2 HiBit Dmax (%)
Procedure, shortened: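 Remaining tagged Helios was read as lytic HiBiT/LgBiT luminescence normalized to DMSO, yielding binned DC50 and Dmax values. Treatment ran 6 h, with compounds at 11 three-fold doses diluted from 1 mM and 0.1% final DMSO. The cells were HEK293T Flp-in with CRISPR knock-in of HiBiT at the IKZF2 N-terminus.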

Sequence of IKZF2 (Q9UKS7 whole entry): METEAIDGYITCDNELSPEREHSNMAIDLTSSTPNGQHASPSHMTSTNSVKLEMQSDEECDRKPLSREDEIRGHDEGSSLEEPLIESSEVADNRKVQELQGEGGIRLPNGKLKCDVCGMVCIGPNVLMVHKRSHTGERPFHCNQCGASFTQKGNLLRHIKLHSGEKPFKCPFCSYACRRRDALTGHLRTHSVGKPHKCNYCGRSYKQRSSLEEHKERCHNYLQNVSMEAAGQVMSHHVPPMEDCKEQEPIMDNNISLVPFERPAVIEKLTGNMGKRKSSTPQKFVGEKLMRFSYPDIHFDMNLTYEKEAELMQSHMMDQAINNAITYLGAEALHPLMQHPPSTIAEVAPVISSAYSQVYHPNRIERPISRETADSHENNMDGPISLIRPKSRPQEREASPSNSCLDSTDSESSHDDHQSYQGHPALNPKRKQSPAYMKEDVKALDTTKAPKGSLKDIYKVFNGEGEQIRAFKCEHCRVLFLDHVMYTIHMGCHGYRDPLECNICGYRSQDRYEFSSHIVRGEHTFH
Sequence of IKZF2 (Q96SW2 whole entry): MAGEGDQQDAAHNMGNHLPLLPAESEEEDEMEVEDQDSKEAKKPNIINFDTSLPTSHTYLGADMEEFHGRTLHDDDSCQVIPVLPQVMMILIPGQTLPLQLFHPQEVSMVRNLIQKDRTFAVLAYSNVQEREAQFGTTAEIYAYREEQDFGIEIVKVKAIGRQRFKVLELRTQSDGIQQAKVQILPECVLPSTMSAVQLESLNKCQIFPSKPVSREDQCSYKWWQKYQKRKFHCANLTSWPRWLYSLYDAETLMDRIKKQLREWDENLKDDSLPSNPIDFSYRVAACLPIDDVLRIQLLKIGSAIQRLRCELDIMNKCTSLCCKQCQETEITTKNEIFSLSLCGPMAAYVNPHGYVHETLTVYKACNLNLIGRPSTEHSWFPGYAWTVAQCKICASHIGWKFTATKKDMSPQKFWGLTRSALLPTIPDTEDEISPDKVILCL
Sequence of IKZF2 (Q16531 2-1140 partner): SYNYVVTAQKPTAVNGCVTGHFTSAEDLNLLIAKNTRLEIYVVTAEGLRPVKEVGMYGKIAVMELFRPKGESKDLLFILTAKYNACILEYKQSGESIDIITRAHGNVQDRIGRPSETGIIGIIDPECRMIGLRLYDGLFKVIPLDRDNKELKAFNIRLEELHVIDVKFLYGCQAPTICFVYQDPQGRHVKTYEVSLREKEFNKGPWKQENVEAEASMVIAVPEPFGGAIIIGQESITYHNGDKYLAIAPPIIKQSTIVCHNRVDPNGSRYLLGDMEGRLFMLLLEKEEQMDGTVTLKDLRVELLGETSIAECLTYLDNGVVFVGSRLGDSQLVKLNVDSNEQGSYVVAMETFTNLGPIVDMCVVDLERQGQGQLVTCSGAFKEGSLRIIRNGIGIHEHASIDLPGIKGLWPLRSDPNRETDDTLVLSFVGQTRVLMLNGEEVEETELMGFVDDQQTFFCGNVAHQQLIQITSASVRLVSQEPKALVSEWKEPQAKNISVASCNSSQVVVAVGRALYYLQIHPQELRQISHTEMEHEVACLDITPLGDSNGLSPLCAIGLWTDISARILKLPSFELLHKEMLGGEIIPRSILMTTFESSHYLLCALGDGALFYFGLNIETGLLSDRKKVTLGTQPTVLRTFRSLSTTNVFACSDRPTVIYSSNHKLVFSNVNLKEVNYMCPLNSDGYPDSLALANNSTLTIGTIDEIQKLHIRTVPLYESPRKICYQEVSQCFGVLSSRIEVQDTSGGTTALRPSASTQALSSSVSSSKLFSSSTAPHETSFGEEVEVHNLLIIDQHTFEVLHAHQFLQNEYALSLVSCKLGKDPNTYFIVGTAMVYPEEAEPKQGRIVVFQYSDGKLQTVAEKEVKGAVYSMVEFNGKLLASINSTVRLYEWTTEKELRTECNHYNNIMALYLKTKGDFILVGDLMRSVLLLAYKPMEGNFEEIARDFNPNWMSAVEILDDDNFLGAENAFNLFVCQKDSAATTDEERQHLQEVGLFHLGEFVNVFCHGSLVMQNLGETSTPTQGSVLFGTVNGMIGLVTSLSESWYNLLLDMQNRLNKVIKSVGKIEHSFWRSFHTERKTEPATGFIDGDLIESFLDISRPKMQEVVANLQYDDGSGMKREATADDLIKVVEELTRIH
Sequence of CRBN/DDB1 (Q96SW2 whole entry, species assumed): as the sequence (Q96SW2 whole entry) above
Sequence of CRBN/DDB1 (Q16531 whole entry partner, species assumed): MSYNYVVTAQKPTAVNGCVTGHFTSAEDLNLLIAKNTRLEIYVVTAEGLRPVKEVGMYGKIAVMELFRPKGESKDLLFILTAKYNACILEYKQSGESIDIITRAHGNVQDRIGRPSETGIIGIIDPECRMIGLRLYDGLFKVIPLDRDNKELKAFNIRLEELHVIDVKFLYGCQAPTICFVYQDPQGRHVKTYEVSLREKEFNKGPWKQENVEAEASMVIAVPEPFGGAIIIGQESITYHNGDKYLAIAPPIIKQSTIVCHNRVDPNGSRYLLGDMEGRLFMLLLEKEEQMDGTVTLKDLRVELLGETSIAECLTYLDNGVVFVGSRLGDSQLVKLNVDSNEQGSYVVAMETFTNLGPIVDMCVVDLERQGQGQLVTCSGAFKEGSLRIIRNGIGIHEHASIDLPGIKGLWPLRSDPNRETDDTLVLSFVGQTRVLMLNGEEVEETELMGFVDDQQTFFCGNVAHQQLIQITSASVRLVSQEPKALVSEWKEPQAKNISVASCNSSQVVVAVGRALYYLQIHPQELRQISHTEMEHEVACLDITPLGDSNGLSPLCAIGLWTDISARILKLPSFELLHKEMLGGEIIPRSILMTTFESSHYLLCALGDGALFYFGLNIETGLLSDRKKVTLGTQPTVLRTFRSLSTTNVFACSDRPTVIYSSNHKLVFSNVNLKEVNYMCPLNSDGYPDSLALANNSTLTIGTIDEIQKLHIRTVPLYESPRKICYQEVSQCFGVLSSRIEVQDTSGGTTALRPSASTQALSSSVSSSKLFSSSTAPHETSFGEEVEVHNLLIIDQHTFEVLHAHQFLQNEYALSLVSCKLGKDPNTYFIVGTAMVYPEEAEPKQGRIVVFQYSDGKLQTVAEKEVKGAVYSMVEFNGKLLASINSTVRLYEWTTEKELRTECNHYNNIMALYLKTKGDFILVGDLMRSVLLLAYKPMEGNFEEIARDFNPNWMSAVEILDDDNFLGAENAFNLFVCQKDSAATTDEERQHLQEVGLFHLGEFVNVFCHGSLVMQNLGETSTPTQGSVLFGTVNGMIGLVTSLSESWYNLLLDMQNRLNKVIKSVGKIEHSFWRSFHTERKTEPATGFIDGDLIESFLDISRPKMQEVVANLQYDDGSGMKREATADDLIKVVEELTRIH
Sequence of IKZF1 (Q13422 whole entry): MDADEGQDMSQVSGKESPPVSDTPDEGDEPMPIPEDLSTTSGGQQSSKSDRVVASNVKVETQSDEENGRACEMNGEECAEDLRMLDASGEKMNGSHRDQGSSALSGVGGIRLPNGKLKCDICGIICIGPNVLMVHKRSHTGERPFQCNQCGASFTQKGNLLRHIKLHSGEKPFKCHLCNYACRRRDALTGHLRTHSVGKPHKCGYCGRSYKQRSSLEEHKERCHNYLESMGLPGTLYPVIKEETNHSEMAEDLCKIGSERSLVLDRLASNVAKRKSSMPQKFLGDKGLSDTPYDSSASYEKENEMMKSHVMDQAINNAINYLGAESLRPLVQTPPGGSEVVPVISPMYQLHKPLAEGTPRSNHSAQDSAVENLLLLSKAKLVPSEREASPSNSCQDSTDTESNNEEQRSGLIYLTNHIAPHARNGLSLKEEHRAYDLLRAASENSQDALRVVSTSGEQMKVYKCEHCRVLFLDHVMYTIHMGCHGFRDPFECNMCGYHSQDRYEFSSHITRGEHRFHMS
Sequence of IKZF1 (Q96SW2 whole entry): as the sequence (Q96SW2 whole entry) above
Sequence of IKZF1 (Q16531 2-1140 partner): as the sequence (Q16531 2-1140 partner) above

Row | Structure (SMILES) | DC50 (IKZF1) [nM] | Dmax (IKZF1) [%] | IC50 (CRBN/DDB1) [nM] | DC50 (IKZF2) [nM] | Dmax (IKZF2) [%]
1 | O=C1CCC(N2Cc3cc(-c4cc(CN5CCCC5)c5ccn(Cc6ccccc6)c5n4)ccc3C2=O)C(=O)N1 (stereo not shown) [Example 147, 3-(5-(1-benzyl-4-(pyrrolidin-1-ylmethyl)-1H-pyrrolo[2,3-b]pyridin-6-yl)-1-oxoisoindolin-2-yl) piperidine-2,6-dione] | > 10000 | < 20 | 100 to 500 | 1 to 10 | 40 to 60
2 | CC#CCn1ccc2c(CN3CCCC3)cc(-c3ccc4c(c3)CN(C3CCC(=O)NC3=O)C4=O)nc21 (stereo not shown) [Example 148, 3-(5-(1-(but-2-yn-1-yl)-4-(pyrrolidin-1-ylmethyl)-1H-pyrrolo[2,3-b]pyridin-6-yl)-1-oxoisoindolin-2-yl) piperidine-2,6-dione] | > 10000 | < 20 | 100 to 500 | 1 to 10 | 60 to 80
3 | CN(C)C(=O)Cn1ccc2c(CN3CCCC3)cc(-c3ccc4c(c3)CN(C3CCC(=O)NC3=O)C4=O)nc21 (stereo not shown) [Example 149, 2-(6-(2-(2,6-dioxopiperidin-3-yl)-1-oxoisoindolin-5-yl)-4-(pyrrolidin-1-ylmethyl)-1H-pyrrolo[2,3-b]pyridin-1-yl)-N,N-dimethylacetamide] | > 10000 | < 20 | 1000 to 5000 | 100 to 1000 | 20 to 40
4 | O=C1CCC(N2Cc3cc(-c4cc(CN5CCCC5)c5ccn(C6CCCC6)c5n4)ccc3C2=O)C(=O)N1 (stereo not shown) [Example 154, 3-(5-(1-cyclopentyl-4-(pyrrolidin-1-ylmethyl)-1H-pyrrolo[2,3-b]pyridin-6-yl)-1-oxoisoindolin-2-yl) piperidine-2,6-dione] | > 10000 | < 20 | 500 to 1000 | 1 to 10 | 60 to 80
5 | O=C1CCC(N2Cc3cc(-c4cc(CN5CCC(CO)C5)c5ccn(C6CC6)c5n4)ccc3C2=O)C(=O)N1 (stereo not shown) [Example 155, 3-(5-(1-cyclopropyl-4-((3-(hydroxymethyl)pyrrolidin-1-yl)methyl)-1H-pyrrolo[2,3-b]pyridin-6-yl)-1-oxoisoindolin-2-yl) piperidine-2,6-dione] | 10 to 100 | 20 to 40 | 100 to 500 | 1 to 10 | > 80
6 | O=C1CCC(N2Cc3cc(-c4cc(CN5CCC5)c5[nH]ccc5n4)ccc3C2=O)C(=O)N1 (stereo not shown) [Example 156, 3-(5-(7-(azetidin-1-ylmethyl)-1H-pyrrolo[3,2-b]pyridin-5-yl)-1-oxoisoindolin-2-yl) piperidine-2,6-dione] | 10 to 100 | 20 to 40 | 1000 to 5000 | 1 to 10 | > 80
7 | O=C1CCC(N2Cc3cc(-c4cc(CN5CCC(F)C5)c5ccn(C6COC6)c5n4)ccc3C2=O)C(=O)N1 (stereo not shown) [Example 157, 3-(5-(4-((3-fluoropyrrolidin-1-yl)methyl)-1-(oxetan-3-yl)-1H-pyrrolo[2,3-b]pyridin-6-yl)-1-oxoisoindolin-2-yl) piperidine-2,6-dione] | > 10000 | < 20 | 500 to 1000 | 1 to 10 | > 80
8 | O=C1CCC(N2Cc3cc(-c4cc(CN5CCC(O)CC5)c5ccn(C6CC6)c5n4)ccc3C2=O)C(=O)N1 (stereo not shown) [Example 159, 3-(5-(1-cyclopropyl-4-((4-hydroxypiperidin-1-yl)methyl)-1H-pyrrolo[2,3-b]pyridin-6-yl)-1-oxoisoindolin-2-yl) piperidine-2,6-dione] | 10 to 100 | 20 to 40 | 100 to 500 | 1 to 10 | 60 to 80
9 | O=C1CCC(N2Cc3cc(-c4cc(CN5CC(O)C5)c5ccn(C6COC6)c5n4)ccc3C2=O)C(=O)N1 (stereo not shown) [Example 160, 3-(5-(4-((3-hydroxyazetidin-1-yl)methyl)-1-(oxetan-3-yl)-1H-pyrrolo[2,3-b]pyridin-6-yl)-1-oxoisoindolin-2-yl) piperidine-2,6-dione] | > 10000 | < 20 | < 100 | 10 to 100 | 40 to 60
10 | O=C1CCC(N2Cc3cc(-c4cc(CN5CC(CO)C5)c5ccn(C6COC6)c5n4)ccc3C2=O)C(=O)N1 (stereo not shown) [Example 165, 3-(5-(4-((3-(hydroxymethyl)azetidin-1-yl)methyl)-1-(oxetan-3-yl)-1H-pyrrolo[2,3-b]pyridin-6-yl)-1-oxoisoindolin-2-yl) piperidine-2,6-dione] | > 10000 | < 20 | 100 to 500 | 10 to 100 | 60 to 80
11 | O=C1CCC(N2Cc3cc(-c4cc(CN5CCCC5)c5ccn(C6CCCCC6)c5n4)ccc3C2=O)C(=O)N1 (stereo not shown) [Example 166, 3-(5-(1-cyclohexyl-4-(pyrrolidin-1-ylmethyl)-1H-pyrrolo[2,3-b]pyridin-6-yl)-1-oxoisoindolin-2-yl) piperidine-2,6-dione] | > 10000 | < 20 | 100 to 500 | 1 to 10 | 40 to 60
12 | CN(C)C(=O)CC1CCN(Cc2cc(-c3ccc4c(c3)CN(C3CCC(=O)NC3=O)C4=O)nc3[nH]ccc23)C1 (stereo not shown) [Example 167, 2-(1-((6-(2-(2,6-dioxopiperidin-3-yl)-1-oxoisoindolin-5-yl)-1H-pyrrolo[2,3-b]pyridin-4-yl)methyl)pyrrolidin-3-yl)-N,N-dimethylacetamide] | 100 to 1000 | 20 to 40 | 100 to 500 | 10 to 100 | 60 to 80
13 | O=C1CCC(N2Cc3cc(-c4cc(CN5CCCC5)c5ccn(C6CNC6)c5n4)ccc3C2=O)C(=O)N1 (stereo not shown) [Example 168, 3-(5-(1-(azetidin-3-yl)-4-(pyrrolidin-1-ylmethyl)-1H-pyrrolo[2,3-b]pyridin-6-yl)-1-oxoisoindolin-2-yl) piperidine-2,6-dione] | 1000 to 10000 | 20 to 40 | 500 to 1000 | 100 to 1000 | 60 to 80
14 | CN1CC(n2ccc3c(CN4CCCC4)cc(-c4ccc5c(c4)CN(C4CCC(=O)NC4=O)C5=O)nc32)C1 (stereo not shown) [Example 169, 3-(5-(1-(1-methylazetidin-3-yl)-4-(pyrrolidin-1-ylmethyl)-1H-pyrrolo[2,3-b]pyridin-6-yl)-1-oxoisoindolin-2-yl) piperidine-2,6-dione] | 10 to 100 | 40 to 60 | < 100 | 1 to 10 | > 80
15 | O=C1CCC(N2Cc3cc(-c4cc(CN5CCCC5)c5ccn(C6CCOCC6)c5n4)ccc3C2=O)C(=O)N1 (stereo not shown) [Example 171, 3-(1-oxo-5-(4-(pyrrolidin-1-ylmethyl)-1-(tetrahydro-2H-pyran-4-yl)-1H-pyrrolo[2,3-b]pyridin-6-yl)isoindolin-2-yl) piperidine-2,6-dione] | > 10000 | < 20 | 100 to 500 | 1 to 10 | 60 to 80
16 | CC(C)n1ccc2nc(-c3ccc4c(c3)CN(C3CCC(=O)NC3=O)C4=O)cc(CN3CCCC3)c21 (stereo not shown) [Example 172, 3-(5-(1-isopropyl-7-(pyrrolidin-1-ylmethyl)-1H-pyrrolo[3,2-b]pyridin-5-yl)-1-oxoisoindolin-2-yl) piperidine-2,6-dione] | 100 to 1000 | 20 to 40 | 1000 to 5000 | 10 to 100 | 60 to 80
17 | O=C1CCC(N2Cc3cc(-c4cc(CN5CCCC5)c5c(ccn5CCCO)n4)ccc3C2=O)C(=O)N1 (stereo not shown) [Example 173, 3-(5-(1-(3-hydroxypropyl)-7-(pyrrolidin-1-ylmethyl)-1H-pyrrolo[3,2-b]pyridin-5-yl)-1-oxoisoindolin-2-yl) piperidine-2,6-dione] | 100 to 1000 | 20 to 40 | 1000 to 5000 | 10 to 100 | 60 to 80
18 | O=C1CCC(N2Cc3cc(-c4cc(CN5CCCC5)c5c(ccn5C5CC5)n4)ccc3C2=O)C(=O)N1 (stereo not shown) [Example 174, 3-(5-(1-cyclopropyl-7-(pyrrolidin-1-ylmethyl)-1H-pyrrolo[3,2-b]pyridin-5-yl)-1-oxoisoindolin-2-yl) piperidine-2,6-dione] | 10 to 100 | 20 to 40 | 500 to 1000 | 1 to 10 | 60 to 80
19 | O=C1CCC(N2Cc3cc(-c4cc(CN5CCCC5)c5c(ccn5CCO)n4)ccc3C2=O)C(=O)N1 (stereo not shown) [Example 175, 3-(5-(1-(2-hydroxyethyl)-7-(pyrrolidin-1-ylmethyl)-1H-pyrrolo[3,2-b]pyridin-5-yl)-1-oxoisoindolin-2-yl) piperidine-2,6-dione] | > 10000 | < 20 | 1000 to 5000 | 10 to 100 | 60 to 80
20 | CC(C)n1nc(N)c2nc(-c3ccc4c(c3)CN(C3CCC(=O)NC3=O)C4=O)cc(CN3CCCC3)c21 (stereo not shown) [Example 177, 3-(5-(3-amino-1-isopropyl-7-(pyrrolidin-1-ylmethyl)-1H-pyrazolo[4,3-b]pyridin-5-yl)-1-oxoisoindolin-2-yl) piperidine-2,6-dione] | 10 to 100 | 20 to 40 | 500 to 1000 | 1 to 10 | 60 to 80
